Patent publication US7811352B2, “Fertilizer compositions and methods of using” (priority 2005, dated 2010)

How the values were obtained:
[1] = test system: Moonlight Kentucky bluegrass; assay: Phytotoxic injury rating, Kentucky bluegrass lawn (Example 17); type: in vivo
Text: In this Example, the effect of a fertilizer comprising lysine on cool season lawn variety turfgrass growth was examined. The effects of lysine (HCl) and LIQUID LYSINE on a common variety of law turfgrass (Moonlight Kentucky bluegrass) were compared with those of urea, Milorganite and a blended fertilizer (a blend of methylene urea and urea in an approximately 1:1 ratio).
Fifteen fertilizer treatments comprising three concentrations of each fertilizer composition (Milorganite N—P—K, 6-2-0), urea (N—P—K, 46-0-0), a blended fertilizer, LIQUID LYSINE (N—P—K, 10-2-1), and lysine (HCl) (N—P—K, 15-2-1)) were prepared and applied to 3 replications of newly established “Moonlight” variety Kentucky bluegrass lawn turfgrass. The urea, lysine (HCl), and LIQUID LYSINE were dissolved/suspended in 1.5 gal water prior to application. […], […], The urea, LIQUID LYSINE and lysine (HCl) were applied as foliar liquids, while Milorganite and the blended fertilizer were applied as granular fertilizers. Plot size was 4 ft×8 ft laid out in a replicated complete block design. Plots were mowed at 2.0 inches before fertilizer application and mowed two times per week to 2.0 inch height. Grass clippings were not removed from the plots and no supplemental cultural maintenance or pest management was applied. Irrigation (0.15 inch) was applied following application and thereafter only when necessary to insure survival of the turf. Plots were rated for turfgrass quality (scale of 1-9 where 9=dark green turf, 1=dead/brown turf, and 6=minimally acceptable turf) and phytotoxic injury (scale of 0-9 where 9=significant foliar injury and 2=minimally objectionable foliar injury) throughout the study period. Quality was measured prior to application (day 0) and day 37, day 70 and day 95 after application. Injury was measured on day 37 and day 70 after application. In addition, blade density of the grass was measured on day 70 after application (scale of 1-9, where 9=very dense turf, 1=low density turf). All data was subject to statistical analysis and significant means were determined.

[2] = test system: Floratam St. Augustine grass; assay: Turfgrass quality and color ratings, St. Augustine grass (Example 9); type: in vivo; set-up: key: 1-10 scale: 10 = dark green turf, 1 = dead/brown, 6 = minimally acceptable; conditions: scale 1-10
Text: In this Example, the effect of a fertilizer comprising lysine on warn season turfgrass growth was examined. The effects of lysine (HCl) and LIQUID LYSINE on a common type of lawn quality turfgrass (St. Augustine grass) were compared with those of urea and Milorganite. St. Augustine grass is a commonly utilized turfgrass throughout the warm, tropical zones for lawn turf and is a commercially significant species.
Twelve fertilizer treatments comprising three concentrations of each fertilizer composition (Milorganite (N—P—K, 6-2-0), urea N—P—K, 46-0-0), LIQUID LYSINE (N—P—K, 10-2-1), and lysine (HCl) (N—P—K, 15-2-1)) were prepared and applied to 4 replications of Floratam St. Augustine grass. The lysine (HCl) was dissolved in water prior to application. Each fertilizer treatment was applied in concentrations of 0.5 lb N/1000 ft^2/month, 1.0 lb N/1000 ft^2/month and 3.0 lb N/1000 ft^2/month. The urea, LIQUID LYSINE and lysine (HCl) were applied as foliar liquids, while Milorganite was applied as a granular fertilizer. Plot size was 1 m×2 m set up as a randomized complete block. Plots were mowed at 3.0 inches before fertilizer application. Irrigation (0.15 inch) was applied following application. Plots were rated for turfgrass quality and color (scale of 1-10 where 10=dark green turf, 1=dead/brown turf; and 6=minimally acceptable turf) and phytotoxicity (scale of 0-5, where 5=worst, and 2=minimally objectionable) throughout the study period. Quality, color, and phytotoxicity were measured on 2 days before application (day −2) and day 2, day 5, day 15 and day 21 after application. All data was subject to statistical analysis and significant means were determined. Average turfgrass quality ratings for the treatments are presented in Table 6 and the quality results for application rates of 1.0 lb N/1000 ft^2/month are graphically presented in FIG. 2.

[3] = Weekly Rate 0.5 lbs N/1000 ft^2, Day 37
[4] = Weekly Rate 0.5 lbs N/1000 ft^2, Day 70
[5] = Weekly Rate 1.0 lbs N/1000 ft^2, Day 37
[6] = Weekly Rate 1.0 lbs N/1000 ft^2, Day 70
[7] = Weekly Rate 3.0 lbs N/1000 ft^2, Day 37
[8] = Weekly Rate 3.0 lbs N/1000 ft^2, Day 70
[9] = Monthly Rate 0.5 lbs N/1000 ft^2, Day 2
[10] = Monthly Rate 0.5 lbs N/1000 ft^2, Day 5
[11] = Monthly Rate 0.5 lbs N/1000 ft^2, Day 15
[12] = Monthly Rate 0.5 lbs N/1000 ft^2, Day 21
[13] = Monthly Rate 0.5 lbs N/1000 ft^2, Day −2 (before application)
[14] = Monthly Rate 1.0 lbs N/1000 ft^2, Day 2
[15] = Monthly Rate 1.0 lbs N/1000 ft^2, Day 5
[16] = Monthly Rate 1.0 lbs N/1000 ft^2, Day 15
[17] = Monthly Rate 1.0 lbs N/1000 ft^2, Day 21
[18] = Monthly Rate 1.0 lbs N/1000 ft^2, Day −2 (before application)
[19] = Monthly Rate 3.0 lbs N/1000 ft^2, Day 2
[20] = Monthly Rate 3.0 lbs N/1000 ft^2, Day 5
[21] = Monthly Rate 3.0 lbs N/1000 ft^2, Day 15
[22] = Monthly Rate 3.0 lbs N/1000 ft^2, Day 21
[23] = Monthly Rate 3.0 lbs N/1000 ft^2, Day −2 (before application)

Structure (SMILES) | Injury Rating - Kentucky Bluegrass [1, 3] | Injury Rating - Kentucky Bluegrass [1, 4] [c] | Injury Rating - Kentucky Bluegrass [1, 5] | Injury Rating - Kentucky Bluegrass [1, 6] | Injury Rating - Kentucky Bluegrass [1, 7] | Injury Rating - Kentucky Bluegrass [1, 8] [ab] | Color Ratings - St. Augustine Grass [2, 9] | Quality Ratings - St. Augustine Grass [2, 9] | Color Ratings - St. Augustine Grass [2, 10] [cd] | Quality Ratings - St. Augustine Grass [2, 10] [bcd] | Color Ratings - St. Augustine Grass [2, 11] | Quality Ratings - St. Augustine Grass [2, 11] | Color Ratings - St. Augustine Grass [2, 12] | Quality Ratings - St. Augustine Grass [2, 12] | Color Ratings - St. Augustine Grass [2, 13] | Quality Ratings - St. Augustine Grass [2, 13] | Color Ratings - St. Augustine Grass [2, 14] | Quality Ratings - St. Augustine Grass [2, 14] | Color Ratings - St. Augustine Grass [2, 15] [bc] | Quality Ratings - St. Augustine Grass [2, 15] | further results
NC(N)=O [Urea, urea, reference compound] | 1.0e | 5.0 | 1.3e | 5.7bc | 3.3bc | 7.0 | 6.9 | 6.8 | 7.4 | 7.1 | 7.8bc | 7.6def | 7.6bc | 7.6bc | 6.4 | 6.3 | 6.9 | 6.8 | 7.6 | 7.5ab | Color Ratings - St. Augustine Grass [2, 16]: 7.5cde; Quality Ratings - St. Augustine Grass [2, 16]: 7.9cde; Color Ratings - St. Augustine Grass [2, 17]: 7.9abc; Quality Ratings - St. Augustine Grass [2, 17]: 7.6bc; Color Ratings - St. Augustine Grass [2, 18]: 6.4; Quality Ratings - St. Augustine Grass [2, 18]: 6.3; Color Ratings - St. Augustine Grass [2, 19]: 6.8; Quality Ratings - St. Augustine Grass [2, 19]: 6.9; Color Ratings - St. Augustine Grass [2, 20]: 8.3a; Quality Ratings - St. Augustine Grass [2, 20]: 7.3abc; Color Ratings - St. Augustine Grass [2, 21]: 8.8a; Quality Ratings - St. Augustine Grass [2, 21]: 9.1ab; Color Ratings - St. Augustine Grass [2, 22]: 8.5a; Quality Ratings - St. Augustine Grass [2, 22]: 8.3a; Color Ratings - St. Augustine Grass [2, 23]: 6.1; Quality Ratings - St. Augustine Grass [2, 23]: 6.1
Cl.NCCCC[C@H](N)C(=O)O [Lys (HCl) 15% N, L-lysine monohydrochloride] | 1.7de | 5.0 | 2.7cd | 6.0abc | 6.3a | 7.0 | 6.5 | 6.5 | 7.3 | 7.1 | 7.0ef | 7.3ef | 7.4c | 7.3cd | 6.6 | 6.5 | 7.0 | 6.6 | 7.6 | 7.3abc | Color Ratings - St. Augustine Grass [2, 16]: 7.6cd; Quality Ratings - St. Augustine Grass [2, 16]: 7.9cde; Color Ratings - St. Augustine Grass [2, 17]: 8.0abc; Quality Ratings - St. Augustine Grass [2, 17]: 7.9ab; Color Ratings - St. Augustine Grass [2, 18]: 6.6; Quality Ratings - St. Augustine Grass [2, 18]: 6.4; Color Ratings - St. Augustine Grass [2, 19]: 6.6; Quality Ratings - St. Augustine Grass [2, 19]: 6.9; Color Ratings - St. Augustine Grass [2, 20]: 8.0ab; Quality Ratings - St. Augustine Grass [2, 20]: 7.5ab; Color Ratings - St. Augustine Grass [2, 21]: 8.6a; Quality Ratings - St. Augustine Grass [2, 21]: 9.3a; Color Ratings - St. Augustine Grass [2, 22]: 8.0abc; Quality Ratings - St. Augustine Grass [2, 22]: 7.9ab; Color Ratings - St. Augustine Grass [2, 23]: 6.6; Quality Ratings - St. Augustine Grass [2, 23]: 6.3
